Among the test systems are HS 578T breast; NCI/ADR-RES ovarian; DU-145 prostate; MDA-N.
Experiment in all cases: NCI tumour cell line growth inhibition, 48 h

Several values for one entry are separate records, joined by “and”; a condition that tells them apart may be missing. Equal values may be shown once.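 Briefly, cells in 96-well plates were exposed to five compound concentrations for 48 h, and endpoints were estimated by linear interpolation. Here, GI50 denotes the concentration required for 50% inhibition of growth. TGI: concentration producing complete growth inhibition.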

As for `COC(=O)[C@@H](C)C[C@H](Cc1ccccc1)NC(=O)c1csc([C@@H](C[C@H](C(C)C)N(C)C(=O)[C@@H](NC(=O)[C@H]2CCCCN2C)c2ccc(F)cc2)OC(C)=O)n1`, in the assay on HS 578T breast, the TGI is greater than 100 µM. In the assay with NCI/ADR-RES ovarian, the GI50 was 1.81 µM and 3.8 µM; the TGI was 25 µM and > 100 µM.
As to `CN1CCN(c2ccncc2S(=O)(=O)N2CCN(C)CC2)CC1`, the TGI in the assay with DU-145 prostate, in the assay with HS 578T breast, in the assay with MDA-N and with NCI/ADR-RES ovarian was greater than 100 µM each time.
For the compound `O=C(Nc1ccc(Cl)cc1)c1cc(NCc2cc(O)ccc2O)ccc1O`, the GI50 was 13.2 µM in the assay with DU-145 prostate, 9.12 µM with HS 578T breast and 4.43 µM in the assay on NCI/ADR-RES ovarian. For the same compound, the figures for the TGI in the assay on DU-145 prostate, in the assay on HS 578T breast and with NCI/ADR-RES ovarian were 26.9 µM, 55.7 µM and 62.9 µM, respectively.
`O=C1CC=C2C3CC4N(CCC45c4ccccc4N1C25)C/C3=C\CO` (centres undefined): the TGI with DU-145 prostate, with HS 578T breast, in the assay on MDA-N and with NCI/ADR-RES ovarian was greater than 100 µM each time.
On to `COc1ccc2c(c1)C(=O)/C(=C/c1ccc(O)cc1)O2`, for which the results for the GI50 in the assay with DU-145 prostate, in the assay with HS 578T breast and in the assay with NCI/ADR-RES ovarian were 9.45 µM, 28.6 µM and 26.1 µM, respectively. Also, the figures for the TGI in the assay with DU-145 prostate, in the assay with HS 578T breast and with NCI/ADR-RES ovarian were 21.9 µM, greater than 86.3 µM and greater than 83.6 µM, respectively.
For the compound `CCCCCCCC(=O)Nc1nc2[nH]c(CN3CCN(Cc4cccc(I)c4)CC3)c(CN3CCN(Cc4cccc(I)c4)CC3)c2c(=O)[nH]1`, the figures for the GI50 in the assay on DU-145 prostate, with HS 578T breast and with NCI/ADR-RES ovarian were 0.913 µM, 0.882 µM and 0.882 µM, respectively. Moreover, the TGI in the assay on DU-145 prostate was determined as 1.73 µM; in the assay with HS 578T breast, 1.95 µM; in the assay with NCI/ADR-RES ovarian, 1.74 µM.
Regarding `Cc1cccc2c(=O)c3c(sc12)c(NCCCN)nc1ccccc13`, in the assay with DU-145 prostate, the GI50 was 1.39 µM and the TGI stood at 2.78 µM.
As for `Cc1cc2[nH]c(=O)c3c4ncccc4cn3c2cc1C`, the GI50 in the assay with DU-145 prostate was 4.13 µM; in the assay with HS 578T breast, 5.93 µM; in the assay on NCI/ADR-RES ovarian, 2.93 µM. Moreover, the TGI in the assay on DU-145 prostate is greater than 100 µM; in the assay with HS 578T breast it was 52.2 µM; in the assay with NCI/ADR-RES ovarian it was greater than 100 µM.
`CCOc1ccc(Nc2ccnc3cc(Cl)ccc23)cc1`: the GI50 was greater than 100 µM in the assay on DU-145 prostate, 38.6 µM in the assay on HS 578T breast and greater than 100 µM in the assay on NCI/ADR-RES ovarian. The TGI in the assay on DU-145 prostate, in the assay on HS 578T breast and in the assay with NCI/ADR-RES ovarian was greater than 100 µM each time.
For `O=c1oc2ccc(F)cc2c(=O)n1-c1ccc(I)cc1F`, the GI50 was 0.497 µM in the assay with DU-145 prostate, 0.352 µM in the assay with HS 578T breast and 0.522 µM in the assay with NCI/ADR-RES ovarian. For the same compound, the values for the TGI with DU-145 prostate, in the assay on HS 578T breast and in the assay with NCI/ADR-RES ovarian were 26.4 µM, 2.52 µM and 5.89 µM, respectively.
With `COc1cc(OCCCN2CCCC2)ccc1Nc1ncc(Cl)c(Nc2ccccc2P(C)(C)=O)n1`, the GI50 in the assay with DU-145 prostate was 1.91 µM; in the assay on HS 578T breast, 2.22 µM; in the assay on NCI/ADR-RES ovarian, 12.6 µM. The TGI with DU-145 prostate was 36.4 µM; with HS 578T breast, 10 µM; in the assay with NCI/ADR-RES ovarian, greater than 77.4 µM.
As for `CO[C@H]1/C=C/O[C@@]2(C)Oc3c(C)c(O)c4c(O)c(c(/C=N/N5C(C)CN(Cc6ccc(C#N)cc6)CC5C)c(O)c4c3C2=O)NC(=O)/C(C)=C\C=C\[C@H](C)[C@H](O)[C@@H](C)[C@@H](O)[C@@H](C)[C@H](OC(C)=O)[C@@H]1C` (some centres undefined), the GI50 in the assay on DU-145 prostate is 8.16 µM; with HS 578T breast, 8.83 µM; in the assay on NCI/ADR-RES ovarian, 11.7 µM. The TGI in the assay with DU-145 prostate was 15.3 µM; with HS 578T breast, 20.3 µM; in the assay on NCI/ADR-RES ovarian, 46 µM.
On to `N#Cc1c(N)c(C(=O)c2ccc3c(c2)OCCO3)n2c1CCCC2`, for which the results for the GI50 in the assay with DU-145 prostate, with HS 578T breast and with NCI/ADR-RES ovarian were 4.45 µM, 3.08 µM and 1.12 µM, respectively. The TGI is greater than 100 µM in the assay on DU-145 prostate, greater than 74.9 µM in the assay on HS 578T breast and greater than 52.5 µM with NCI/ADR-RES ovarian.
With `COc1ccc2c(c1)/C(=C\c1c(-c3ccccc3)nc3sccn13)C(=O)N2`, the GI50 is 3.01 µM in the assay with DU-145 prostate and 1.09 µM in the assay on NCI/ADR-RES ovarian. Also, the figures for the TGI with DU-145 prostate and in the assay with NCI/ADR-RES ovarian were 12.6 µM and 3.27 µM, respectively.
Take `O=C(O)c1nn(-c2ccc(Cl)cc2)c2c1C(=O)c1ccccc1C2=O`: the TGI in the assay on DU-145 prostate, with HS 578T breast, with MDA-N and in the assay on NCI/ADR-RES ovarian was greater than 100 µM each time.
As for `Cc1cc(C)c([I+]c2c(C)cc(C)cc2C)c(C)c1`, the figures for the GI50 with DU-145 prostate, in the assay on HS 578T breast and in the assay with NCI/ADR-RES ovarian were 0.622 µM, 0.795 µM and 6.54 µM, respectively. The TGI in the assay on DU-145 prostate was determined as 2.02 µM; in the assay with HS 578T breast, 2.68 µM; in the assay on NCI/ADR-RES ovarian, 26.8 µM.
With `COc1ccc(Cc2ccc3[nH]c(=O)cc(C)c3c2)cc1S(=O)(=O)O`, the TGI in the assay with DU-145 prostate, with HS 578T breast, with MDA-N and in the assay on NCI/ADR-RES ovarian was greater than 100 µM each time.
On to `CC1(C)CC[C@]2(C(=O)NCCNCCN)CC[C@]3(C)C(=CC[C@@H]4[C@@]5(C)CCC(=O)C(C)(C)[C@@H]5CC[C@]43C)[C@@H]2C1`, for which the GI50 with DU-145 prostate is 1.85 µM; in the assay on HS 578T breast it was 1.92 µM; with NCI/ADR-RES ovarian it was 7.81 µM. Also, the figures for the TGI in the assay on DU-145 prostate, with HS 578T breast and in the assay on NCI/ADR-RES ovarian were 3.41 µM, 4.17 µM and 22.7 µM, respectively.
As to `Cn1cc(-c2ncnc3ccc(-c4cnc(Cl)c(NS(C)(=O)=O)c4)cc23)c2ccccc21`, the GI50 was 1.05 µM in the assay with DU-145 prostate, 0.14 µM in the assay on HS 578T breast and 1.24 µM in the assay on NCI/ADR-RES ovarian. Besides, the TGI in the assay with DU-145 prostate was greater than 100 µM; in the assay with HS 578T breast, 1.64 µM; in the assay on NCI/ADR-RES ovarian, 30.3 µM.
Take `OCC#Cc1ccccc1C#Cc1ccc(C#Cc2ccccc2C#CCO)cc1`: the results for the GI50 in the assay on DU-145 prostate, in the assay with HS 578T breast and in the assay on NCI/ADR-RES ovarian were 27.3 µM, 24.3 µM and 55.2 µM, respectively. Also, the figures for the TGI in the assay on DU-145 prostate, in the assay on HS 578T breast and in the assay on NCI/ADR-RES ovarian were 91.3 µM, 58.7 µM and greater than 100 µM, respectively.
`CCC(CO)Nc1nc(NCc2ccccc2)c2n[nH]c(C(C)C)c2n1` (centres undefined): the GI50 was 3.73 µM in the assay on DU-145 prostate, 11.6 µM in the assay with HS 578T breast and 16.7 µM in the assay on NCI/ADR-RES ovarian. For the same compound, the results for the TGI with DU-145 prostate, in the assay with HS 578T breast and in the assay with NCI/ADR-RES ovarian were 16.6 µM, 34.3 µM and 39.2 µM, respectively.

(Values after PubChem BioAssay (NCI).)
